Assay results published in patent EP2573108A1, “Methods for identifying compounds capable of inhibiting degradation of PKM zeta” (SYGNIS Bioscience GmbH & Co KG, priority 2011, dated 2013).
Read-outs that look alike come from different tables or passages of the source. Where a SMILES comes first, the peptide text is derived from it. The star is where a group is joined. Cbz = O=C(OCc1ccccc1)*

How the values were obtained:
PKM zeta [1] = assay: PKM zeta protein stability after translation block with cycloheximide (Western blot), COS cells; type: cell-based; details: up to 48 h
Method: Electroporation of COS1 cells. COS1 cells were cultured in Dulbecco's modified eagle medium (DMEM) high glucose supplemented with 10% fetal calf serum (FCS). Cells were transfected with appropriate plasmids as indicated in the result section. For electroporation, COS-1 cells were harvested and resuspended in electroporation (EP)-buffer (50 mM K2HPO4, 20 mM CH3COOK, 20 mM KOH, pH 7.4) at a densitiy of 3.5x10^6 cells per transfection. After addition of 25 mM MgSO4, cells were mixed with 10 µg of plasmid-DNA (ratio of pulled down plasmid to co-expressed plasmid was 1:4; pure co-expression of two plasmids was performed in a ratio of 1:2) and transferred to an electroporation cuvette. Electroporation was performed in a Biorad Gene Pulsar II electroporator at 500 µF capacitance and 230 V, and cells were transferred into DMEM supplemented with 10% FCS and plated immediately. 48 h after transfection, cells were harvested for Co-IP. To perform western blot analysis, cells were stimulated 24 h after transfection for the indicated time points with cycloheximide and MG-132, respectively.
Western blotting. […] After syringing the lysate 5x, lysate was spun down at 13000 rpm at 4 °C for 10 min and the protein concentration of the supernate was determined (BCA-Test, Pierce). […] For quantification of scanned autoradiographs Windows ImageJ (NIH, Bethesda, MD,USA) was used.

PKM zeta [2] = assay: PKM zeta protein stability after translation block with cycloheximide (Western blot), SHSY-5Y cells; type: cell-based
Method: Western blotting. […] Lysates were frozen in liquid nitrogen and stored afterwards at -20°C. After syringing the lysate 5x, lysate was spun down at 13000 rpm at 4 °C for 10 min and the protein concentration of the supernate was determined (BCA-Test, Pierce). 1/5 volume of 5x sample-buffer (with β-Mercaptoethanol) was added and samples were denatured at 95 °C for 5 min. 50 µg of protein was run on a SDS-PAGE and proteins were transferred to nitrocellulose membranes using an iBlot™ Dry Blotting System (Invitrogen, Karlsruhe, Germany). […] For quantification of scanned autoradiographs Windows ImageJ (NIH, Bethesda, MD,USA) was used.

KIBRA- PKM zeta complex = details: for displacement of KIBRA from a pre-formed complex with PKM zeta: COS lysates, Fig. 4f
Method: (§1) Starting from aa 882, increasing 20aa stretches of KIBRA were deleted and constructs were tested for interaction with FLAG-tagged PKM zeta. […] PKM zeta-flag expression constructs were co-transfected with EGFP-fusion constructs containing the 956-975 PKM zeta binding motif. Amino acids from position 964 to 974 were mutated to Alanin. […] Increasing concentrations of the peptide were added to COS-lysates co-expressing KIBRA and FLAG- PKM zeta before pull-down with anti-FLAG beads. […] The C-terminal serine residues that can be phosphorylated by PKM zeta in vitro were mutated to alanine or glutamate. […] Neurons were infected with a KIBRA-EGFP fusion constructs.
(§2) Co-immunoprecipitation. 2d after electroporation, cells were washed twice with ice-cold 1xPBS, and lyesd (50 mM Tris/HCl pH 7.4, 150 mM NaCl, 0.5% NP40, 20 mM NaF, 2 mM EDTA, 2 mM EGTA, 2 mM orthovanadate, protease inhibitor cocktail) at 4°C. Lysate was incubated with anti-flag beads (Sigma) at 4 °C for 2h, 5µl of peptide solution was added as indicated. Protein was released by 1x SDS loading buffer (without reducing reagents) (95 °C for 5min).
(§3) In more detail, 2d after electroporation, COS cells were washed twice with ice-cold IxPBS, and protein extraction was carried out by lysis of cells with lysis-buffer (50 mM Tris/HCl pH 7.4, 150 mM NaCl, 0.5% NP40, 20 mM NaF, 2 mM EDTA, 2 mM EGTA, 2 mM orthovanadate, protease inhibitor cocktail) at 4 °C. After incubation for 20 min at 4°C, the lysate was spun down at 13500 rpm at 4 °C for 10 min. One part of the supernatant was kept for direct Western analysis (lysate).

PKM zeta [3] = details: PKM zeta expressed in COS cells, Fig. 4e
Method: as §1, §2, §3

| IC50 (KIBRA- PKM zeta complex; increasing concentrations of peptide added to COS-lysates co-expressing KIBRA and FLAG-PKM zeta before pull-down with anti-FLAG beads, estimated) [nM] | binding to PKM zeta (PKM zeta [3]; listed as aa 948-978) | binding to PKM zeta (PKM zeta [3]; listed as synthetic biotin-labeled peptide) | Compound | PKM zeta levels after CHX (PKM zeta [1]) | PKM zeta levels after CHX (PKM zeta [2]) | displacement of KIBRA from a pre-formed complex with PKM zeta (KIBRA- PKM zeta complex) | displacement of KIBRA from a pre-formed complex with PKM zeta (KIBRA- PKM zeta complex; listed as aa 948-978) |
| --- | --- | --- | --- | --- | --- | --- | --- |
|  |  |  | CC(C)C[C@@H](C=O)NC(=O)[C@H](CC(C)C)NC(=O)[C@H](CC(C)C)NC(=O)OCc1ccccc1 [MG132] (Cbz-Leu-Leu-Leu-aldehyde) | prevented the time-dependent decrease in kinase levels | prevented the time-dependent decrease in kinase levels |  |  |
| ~60 | sufficient for binding | able to bind PKM zeta | DSSTLSKKPPFVRNSLERRSVRMKRPSSVKS [synthetic peptide 948-978] |  |  | able to disrupt a preformed KIBRA- PKM zeta complex | able to displace KIBRA from a pre-formed complex with PKM zeta in a concentration-dependent manner |
